According to patent publication US20220226369A1, “ETHANOL HARDENER AND USE THEREOF” (priority 2019, published 2022):

Key:
[1] = Viscosity test by capillary viscometer; type: physicochemical; settings: 20° C.
Protocol: The viscosity of Examples 1, 5 and 7 and ethanol was measured by a capillary viscometer at an ambient temperature of 20° C. The capillary diameter was 0.5-0.6 mm and the viscometer constant was 0.005085 mm^2/s^2. The time difference of liquid passing through the capillary was recorded.
Viscosity=time difference×viscometer constant

rabbit ear vein = test: Embolic effect in rabbit ear vein; type: in vivo, rabbits; settings: 0.1 mL injected, after one-month recovery, India ink
Protocol: Sixty healthy male rabbits with body weight of 2.5±0.2 kg were selected and divided into 6 groups of 10. The rabbits were anesthetized with a 3% sodium pentobarbital solution by intraperitoneal injection at 0.8 mL/kg. An anticoagulated and disinfected PE-8 catheter (0.20 mm×0.36 mm) was inserted into the distal end of the ear vein, until the end of the catheter reached the midpoint of the ear vein. The in-vitro end of the catheter was connected with a 1-mL syringe through a cannula.
0.1 mL of each of the sclerosing agents of various embodiments with different components was injected at a constant speed through the PE-8 catheter. After 30 seconds, the catheter was slowly and gently withdrawn, and a cotton pad was used for hemostasis. Both left and right ears of the animals were treated with the same procedures. The animals after sclerosing treatment were accommodate in individual cages. After a one-month recovery period, after visual inspection, a normal saline containing India ink was slowly injected at the distal end of the ear vein, so as to observe and record whether the blood vessels were completely embolized. The embolization ratio in each group was recorded (Table 2).

Time difference ([1]; capillary diameter 0.5-0.6 mm): 245 s
Viscosity ([1]; viscometer constant 0.005085 mm^2/s^2): 1.25 mm^2/s
Compound: CCO [Ethanol, ethanol]
Ratio of completely embolized vessels (rabbit ear vein): 60% (12/20)
